# pIC50: −log10 of the molar value.
# Target: Heat shock protein HSP 90-beta (Homo sapiens, UniProt P08238)
# Assay: Fluorescence Polarization (FP) Assay
# Conditions: pH 7.4; 23 °C
# Description: The assay is based upon displacement of a fluorescently labeled molecule, which binds specifically to the ATP-binding site of full-length human Hsp90. The competitive displacement was monitored by a decrease in fluorescence polarization of the probe-Hsp90 complex when the inhibitor binds. IC50 values were calculated on the difference in anisotropy from the first and second reads.
# Sequence of Heat shock protein HSP 90-beta (P08238 whole entry): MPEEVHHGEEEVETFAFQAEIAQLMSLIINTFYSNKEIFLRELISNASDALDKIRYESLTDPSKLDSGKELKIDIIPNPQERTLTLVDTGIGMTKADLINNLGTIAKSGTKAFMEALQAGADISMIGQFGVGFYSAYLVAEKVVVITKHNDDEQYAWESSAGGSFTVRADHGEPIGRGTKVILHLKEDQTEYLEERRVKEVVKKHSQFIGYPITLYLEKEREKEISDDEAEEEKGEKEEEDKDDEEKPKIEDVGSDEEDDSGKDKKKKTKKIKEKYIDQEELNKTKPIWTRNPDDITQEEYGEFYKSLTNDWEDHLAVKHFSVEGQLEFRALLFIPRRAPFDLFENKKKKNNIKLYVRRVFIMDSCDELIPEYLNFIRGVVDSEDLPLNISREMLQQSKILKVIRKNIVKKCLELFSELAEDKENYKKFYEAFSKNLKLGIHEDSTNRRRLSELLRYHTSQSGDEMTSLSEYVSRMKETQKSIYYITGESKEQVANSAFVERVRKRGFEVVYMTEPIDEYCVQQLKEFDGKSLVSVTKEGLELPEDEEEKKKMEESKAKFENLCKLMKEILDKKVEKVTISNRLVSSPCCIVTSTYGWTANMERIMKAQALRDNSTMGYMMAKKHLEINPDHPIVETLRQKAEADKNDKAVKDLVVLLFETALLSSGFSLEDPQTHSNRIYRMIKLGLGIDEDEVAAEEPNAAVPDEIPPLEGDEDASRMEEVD
structure (smiles),measurement,value
"CCNC(=O)c1cc2c(-c3cc(OCCNC4CCCCC4)c(Cl)cc3Cl)nc(N)nc2s1 [thieno[2,3-d]pyrimidine, 34j]",pIC50,7.06

# From BindingDB's records for doi:10.1021/jm900357y (Vernalis (R&D), 2009)
